Results on 32 compounds are retold here after US9321760B2 (Merck Patent GmbH, priority 2011, dated 2016).

Chain of P70S6K (T412E mutant) (P23443 whole entry T412E): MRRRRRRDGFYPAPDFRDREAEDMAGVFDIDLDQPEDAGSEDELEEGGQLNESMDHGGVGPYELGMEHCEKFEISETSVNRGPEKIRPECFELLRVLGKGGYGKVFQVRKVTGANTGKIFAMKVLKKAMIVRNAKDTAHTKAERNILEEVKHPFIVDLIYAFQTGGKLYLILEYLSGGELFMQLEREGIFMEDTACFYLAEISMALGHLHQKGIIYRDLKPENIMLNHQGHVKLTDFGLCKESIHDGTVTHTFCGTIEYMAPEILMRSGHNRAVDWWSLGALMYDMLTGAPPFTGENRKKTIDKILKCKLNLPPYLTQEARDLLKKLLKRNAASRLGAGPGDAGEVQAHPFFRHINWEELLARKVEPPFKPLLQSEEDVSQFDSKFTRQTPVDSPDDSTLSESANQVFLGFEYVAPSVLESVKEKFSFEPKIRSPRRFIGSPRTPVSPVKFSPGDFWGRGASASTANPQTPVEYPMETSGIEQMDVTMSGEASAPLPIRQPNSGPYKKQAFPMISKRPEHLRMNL

The experiment addresses P70S6K (T412E mutant) (Homo sapiens (Human), UniProt P23443, T412E). Description: P70S6K enzyme assay. Format: biochemical. Conditions: 3 nM P70S6K T412E mutant, 24 μM ATP, 1 μM FITC-AHA-AKRRRLSSLRA-OH substrate peptide, 90 min at 25° C. The procedure:
The IC50 values reported for the compounds in the Experimental section were derived from the following protocol for the p70S6K enzyme assay.
P70S6K inhibitor compounds were diluted and plated in 96 well plates. A reaction mixture including the following components was then added to the compound plate to initiate the enzyme reaction; P70S6K (3 nM, T412E mutant, Millipore) was mixed with 24 μM ATP in an assay buffer containing 100 mM Hepes (pH 7.5), 5 mM MgCl2, 1 mM DTT, 0.015% Brij and 1 μM of the substrate peptide FITC-AHA-AKRRRLSSLRA-OH (derived from the S6 ribosomal protein sequence, FITC=fluorescein isothiocyanate, AHA=6-aminohexanoic acid). The reaction was incubated for 90 min at 25° C., before the addition of 10 mM EDTA to stop the reaction. The proportion of substrate and product (phosphorylated) peptide was analysed on a Caliper Life Sciences Lab Chip 3000, using a pressure of −1.4 psi, and upstream and downstream voltages of −3000 and −700 respectively. Product peaks were resolved before substrate peaks on the resulting chromatograms.
For orientation: IC50 means the point on the concentration scale where inhibition reaches its midpoint. High values mean weaker potency, low ones greater potency. `Nc1ncnc(N2CCC(C(c3ccc(F)cc3)N3CCCC3)CC2)c1-c1ccc(F)cc1` (centres unmarked) [Example 148, 5-(4-fluoropheny)-6-(4-((4-fluorophenyl)(pyrrolidin-1-yl)methyl)piperidin-1-yl)pyrimidin-4-amine] returned a half-inhibitory concentration (IC50) of 250 nM.
The figure for `COC(=O)c1ccc(C(CN2CCC2)N2CCN(c3ncnc(N)c3-c3cn[nH]c3)CC2)cc1` (single isomer, unassigned) [Example 86, 4-(1-{4-[6-Amino-5-(1H-pyrazol-4-yl)-pyrimidin-4-yl]-piperazin-1-yl}-2-azetidin-1-yl-ethyl)-benzoic acid methyl ester] is 6400 nM; for `COc1ccc([C@H](CN2CCC2)N2CCN(c3ncnc(N)c3-c3ccc(F)cc3)CC2)cc1F` [Example 104, 6-{4-[(R)-2-Azetidin-1-yl-1-(3-fluoro-4-methoxy-phenyl)-ethyl]-piperazin-1-yl}-5-(4-fluoro-phenyl)-pyrimidin-4-ylamine] it is 920 nM; for `Nc1ncnc(N2CCC(N)(CNC(=O)c3ccc(F)cc3F)C2)c1-c1ccncc1` (centres unmarked) [Example 205, N-[3-Amino-1-(6-amino-5-pyridin-4-yl-pyrimidin-4-yl)-pyrrolidin-3-ylmethyl]-2,4-difluoro-benzamide] it is 25 nM.
Compound `Nc1ncnc(N2CCN(C(CN3CCC3)c3ccc4[nH]c(=O)sc4c3)CC2)c1-c1ccc(F)cc1` (centres unmarked) [Example 118, 6-(1-{4-[6-Amino-5-(4-fluoro-phenyl)-pyrimidin-4-yl]-piperazin-1-yl}-2-azetidin-1-yl-ethyl)-3H-benzothiazol-2-one] returned a half-maximal inhibitory concentration (IC50) of 140 nM.
The figure for `CN(C)CCNC(=O)C(c1ccc(C(F)(F)F)cc1)N1CCN(c2ncnc(N)c2-c2ccc(F)cc2)CC1` (centres unmarked) [Example 18, 2-(4-(6-amino-5-(4-fluorophenyl)pyrimidin-4-yl)piperazin-1-yl)-N-(2-(dimethylamino)ethyl)-2-(4-(trifluoromethyl)phenyl)acetamide] is 18 nM; for `Nc1ncnc(N2CCN([C@H](CN3CCC3)c3cccc(F)c3)CC2)c1-c1cn[nH]c1` [Example 87, 6-{4-[(S)-2-Azetidin-1-yl-1-(3-fluoro-phenyl)-ethyl]-piperazin-1-yl}-5-(1H-pyrazol-4-yl)-pyrimidin-4-ylamine] it is 8700 nM.
The figure for `Nc1ncnc(N2CCN(C(CN3CCCC3)c3ccc(F)cc3)CC2)c1-c1ccc(F)cc1` (stereo in doubt) [Example 83, (S)-5-(4-Fluorophenyl)-6{4-[1-(4-fluorophenyl)-2-pyrrolidin-1-yl-ethyl]-piperazin-1-yl}-pyrimidin-4-ylamine] is 1000 nM; for `COC(=O)Cn1cc(-c2c(N)ncnc2N2CCN(C(CN3CCC3)c3cccc(C#N)c3)CC2)cn1` (centres unmarked) [Example 130, [4-(4-Amino-6-{4-[2-azetidin-1-yl-1-(3-cyano-phenyl)-ethyl]-piperazin-1-yl}-pyrimidin-5-yl)-pyrazol-1-yl]-acetic acid methyl ester] it is over 100000 nM.
Turning to `Nc1ncnc(N2CCN(C(CN3CCCCC3)c3cccc(F)c3)CC2)c1-c1ccc(F)cc1` (centres unmarked) [Example 64, 5-(4-Fluorophenyl)-6{4-[1-(3-fluoro-phenyl)-2-piperidin-1-yl-ethyl]-piperazin-1-yl}-pyrimidin-4-ylamine], the half-maximal inhibitory concentration (IC50) came to 50 nM.
Regarding `Nc1ncnc(N2CCN(C(CN3CCC3)c3cccc(F)c3)CC2)c1-c1cn[nH]c1` (single isomer, unassigned) [Example 84, 6-{4-[2-Azetidin-1-yl-1-(3-fluoro-phenyl)-ethyl]-piperazin-1-yl}-5-(1H-pyrazol-4-yl)-pyrimidin-4-ylamine], the IC50 is 15000 nM.
With `COC(=O)c1ccc([C@@H](CN2CCC2)N2CCN(c3ncnc(N)c3-c3ccc(F)cc3)CC2)cc1` [Example 110, 4-((S)-1-{4-[6-Amino-5-(4-fluoro-phenyl)-pyrimidin-4-yl]-piperazin-1-yl}-2-azetidin-1-yl-ethyl)-benzoic acid methyl ester], half-maximal inhibition (IC50) was put at 450 nM.
The result for `NCC(c1ccc(C(F)(F)F)cc1)N1CCN(c2ncnc(N)c2Cl)CC1` (centres unmarked) [Example 80, 6-{4-[2-Amino-1-(4-trifluoromethyl-phenyl)-ethyl]-piperazin-1-yl}-5-chloro-pyrimidin-4-ylamine] reads 79 nM; that for `NCC(c1ccc(F)c(Cl)c1)N1CCN(c2ncnc(N)c2-c2ccc(F)cc2)CC1` (centres unmarked) [Example 161, 6-{4-[2-Amino-1-(3-chloro-4-fluoro-phenyl)-ethyl]-piperazin-1-yl}-5-(4-fluoro-phenyl)-pyrimidin-4-ylamine], 4 nM.
With `Nc1ncnc(N2CCC(C(NCC3CCNCC3)c3ccc(F)cc3)CC2)c1-c1ccc(F)cc1` (centres unmarked) [Example 151], the IC50 turned out to be 200 nM.
The figure for `N#CC(C1CCCCC1)N1CCN(c2ncnc(N)c2-c2ccc(F)cc2)CC1` (centres unmarked) [Example 191, {4-[6-Amino-5-(4-fluoro-phenyl)-pyrimidin-4-yl]-piperazin-1-yl}-cyclohexyl-acetonitrile] is 200 nM.
Compound `NC[C@@H](c1ccc(C(F)(F)F)cc1)C1CCN(c2ncnc(N)c2-c2cn[nH]c2)CC1` (single isomer, unassigned) [Example 57] came in with an IC50 of 4.7 nM. Against the preceding compound, the IC50 is about 43-fold lower.
Regarding `Cn1ccnc1C(c1ccccc1)N1CCN(c2ncnc(N)c2Br)CC1` (centres unmarked) [Example 29, 5-Bromo-6-{4-[(1-methyl-1H-imidazol-2-yl)-phenyl-methyl]-piperazin-1-yl}-pyrimidin-4-ylamine], the IC50 is over 1000 nM.
The figure for `N#Cc1c(N)ncnc1N1CCC(N)(C(=O)N[C@H](c2ccc(Cl)cc2)C(F)(F)F)CC1` [Example 220] is 3200 nM; for `Nc1ncnc(N2CCN([C@@H](CN3CCC3)c3ccc4c(c3)OCCO4)CC2)c1-c1ccc(F)cc1` [Example 94, 6-{4-[(R)-2-Azetidin-1-yl-1-(2,3-dihydro-benzo[1,4]dioxin-6-yl)-ethyl]-piperazin-1-yl}-5-(4-fluoro-phenyl)-pyrimidin-4-ylamine] it is 1600 nM.
The result for `Nc1ncnc(N2CCN([C@H](CN3CCC3)c3ccc4c(c3)OCCO4)CC2)c1-c1ccc(F)cc1` [Example 98, 6-{4-[(S)-2-Azetidin-1-yl-1-(2,3-dihydro-benzo[1,4]dioxin-6-yl)-ethyl]-piperazin-1-yl}-5-(4-fluoro-phenyl)-pyrimidin-4-ylamine] reads 260 nM; that for `COC[C@H](NC(=O)C1(N)CCN(c2ncnc(N)c2C(N)=O)CC1)c1ccc(Cl)cc1` [Example 246, 4-Amino-6-{4-amino-4-[(R)-1-(4-chloro-phenyl)-2-methoxy-ethylcarbamoyl]-piperidin-1-yl}-pyrimidine-5-carboxylic acid amide], 5000 nM.
The figure for `Nc1ncnc(N2CCN(C(CN3CCCCC3)c3ccc(C(F)(F)F)cc3)CC2)c1-c1ccc(F)cc1` (centres unmarked) [Example 12, 5-(4-Fluoro-phenyl)-6-{4-[2-piperidin-1-yl-1-(4-trifluoromethyl-phenyl)-ethyl]-piperazin-1-yl}-pyrimidin-4-ylamine] is 18 nM.
The compound `CN(C)CC(c1ccc(C(F)(F)F)cc1)N1CCN(c2ncnc(N)c2-c2ccc(F)cc2)CC1` (centres unmarked) [Example 15, 6-(4-(2-(dimethylamino)-1-(4-(trifluoromethyl)phenyl)ethyl)piperazin-1-yl)-5-(4-fluorophenyl)pyrimidin-4-amine] had an IC50 of 4.9 nM.
`N#CC(c1ccc(Cl)cc1)N1CCN(c2ncnc(N)c2-c2ccc(F)cc2)CC1` (centres unmarked) [Example 162, {4-[6-Amino-5-(4-fluoro-phenyl)-pyrimidin-4-yl]-piperazin-1-yl}-(4-chloro-phenyl)-acetonitrile] gave an IC50 of 68 nM.
The figure for `NC(=O)c1c(N)ncnc1N1CCC(N)(C(=O)N[C@@H](CCO)c2ccc(Cl)cc2)CC1` [Example 247] is 3600 nM; for `Nc1ncnc(N2CCC(C(OCCN3CCCC3)c3ccc(F)cc3)CC2)c1-c1ccc(F)cc1` (centres unmarked) [Example 146, 5-(4-fluoropheny)6-(4-((4-fluorophenyl)(2-(pyrrolidin-1-yl)ethoxy)methyl)-piperidin-1-yl)pyrimidin-4-amine] it is 11 nM; for `N#CC(c1cccc(C(F)(F)F)c1)N1CCN(c2ncnc(N)c2Br)CC1` (centres unmarked) [Example 166, [4-(6-Amino-5-bromo-pyrimidin-4-yl)-piperazin-1-yl]-(3-trifluoromethyl-phenyl)-acetonitrile] it is 6100 nM.
`NCC(c1cc(C(F)(F)F)ccc1F)N1CCN(c2ncnc(N)c2-c2ccc(F)cc2)CC1` (centres unmarked) [Example 192, 6-{4-[2-Amino-1-(2-fluoro-5-trifluoromethyl-phenyl)-ethyl]-piperazin-1-yl}-5-(4-fluoro-phenyl)-pyrimidin-4-ylamine] yielded a concentration for half-maximal inhibition (IC50) of 13 nM.
The figure for `COC(=O)c1ccc([C@@H](CN2CCC2)N2CCN(c3ncnc(N)c3-c3cn[nH]c3)CC2)cc1` [Example 89, 4-((S)-1-{4-[6-Amino-5-(1H-pyrazol-4-yl)-pyrimidin-4-yl]-piperazin-1-yl}-2-azetidin-1-yl-ethyl)-benzoic acid methyl ester] is 2700 nM.
For the compound `CC[C@H](NC(=O)C1(N)CCN(c2ncnc(N)c2-c2cn[nH]c2)CC1)c1ccc(Cl)cc1` [Example 225, 4-Amino-1-[6-amino-5-(1H-pyrazol-4-yl)-pyrimidin-4-yl]-piperidine-4-carboxylic acid [(S)-1-(4-chloro-phenyl)-propyl]-amide], half-maximal inhibition (IC50) required 78 nM.
`CC(c1ccc(Cl)cc1O)N1CCN(c2ncnc(N)c2-c2ccc(F)cc2)CC1` (centres unmarked) [Example 61, 2-(1-(4-(6-amino-5-(4-fluorophenyl)pyrimidin-4-yl)piperazin-1-yl)ethyl)-5-chlorophenol] came in with an IC50 of 33 nM.
